Data: paper PMC6792352, “Limited Chemical Structural Diversity Found to Modulate Thyroid Hormone Receptor in the Tox21 Chemical Library” (Environmental Health Perspectives, 2019)
Counter-ions that a name gives are not always drawn.

Experiment: in vitro
Conditions: rat, gh3-tre-luc cells

| Compound | CC50 at 24 h (AC50 (uM) modified / 1000) | further results |
| --- | --- | --- |
| O=C(O)C1=C(CSc2nnnn2CS(=O)(=O)O)CS[C@@H]2[C@H](NC(=O)[C@H](O)c3ccccc3)C(=O)N12 [Cefonicid sodium] | > 50 µM | – |
| CCN1CCN(C(=O)N[C@@H](C(=O)N[C@@H]2C(=O)N3C(C(=O)O)=C(CSc4nnnn4C)CS[C@H]23)c2ccc(O)cc2)C(=O)C1=O [Cefoperazone sodium] | > 50 µM | – |
| NCc1ccccc1CC(=O)N[C@@H]1C(=O)N2C(C(=O)O)=C(CSc3nnnn3CC(=O)O)CS[C@H]12 [Ceforanide] | > 20 µM | – |
| CO/N=C(\C(=O)N[C@@H]1C(=O)N2C(C(=O)O)=C(Cn3ccc(=N)n3CCO)CS[C@H]12)c1csc(N)n1 [Cefoselis sulfate] | > 50 µM | – |
| CO/N=C(\C(=O)N[C@@H]1C(=O)N2C(C(=O)O)=C(COC(C)=O)CS[C@H]12)c1csc(N)n1 [Cefotaxime sodium] | > 50 µM | – |
| CO[C@@]1(NC(=O)C2SC(=C(C(N)=O)C(=O)O)S2)C(=O)N2C(C(=O)O)=C(CSc3nnnn3C)CS[C@@H]21 (stereo partly shown) [Cefotetan] | > 20 µM | – |
| CN(C)CCn1nnnc1SCC1=C(C(=O)O)N2C(=O)[C@@H](NC(=O)Cc3csc(N)n3)[C@H]2SC1 [Cefotiam hydrochloride] | > 20 µM | – |
| CO[C@@]1(NC(=O)Cc2cccs2)C(=O)N2C(C(=O)O)=C(COC(N)=O)CS[C@@H]21 [Cefoxitin] | > 50 µM | – |
| CO/N=C(\C(=O)N[C@@H]1C(=O)N2C(C(=O)[O-])=C(C[n+]3ccn4ncccc43)CS[C@H]12)c1nsc(N)n1 [Cefozopran hydrochloride] | > 50 µM | – |
| Cc1cc(O)c(C(=O)N[C@@H](C(=O)N[C@@H]2C(=O)N3C(C(=O)O)=C(CSc4nnnn4C)CS[C@H]23)c2ccc(O)cc2)cn1 [Cefpiramide acid] | > 50 µM | – |
| CO/N=C(\C(=O)N[C@@H]1C(=O)N2C(C(=O)[O-])=C(C[n+]3cccc4c3CCC4)CS[C@H]12)c1csc(N)n1 [Cefpirome sulfate] | > 50 µM | – |
| COCC1=C(C(=O)OC(C)OC(=O)OC(C)C)N2C(=O)[C@@H](NC(=O)/C(=N\OC)c3csc(N)n3)[C@H]2SC1 (stereo partly shown) [Cefpodoxime proxetil] | > 50 µM | – |
| C/C=C/C1=C(C(=O)O)N2C(=O)[C@@H](NC(=O)[C@H](N)c3ccc(O)cc3)[C@H]2SC1 [Cefprozil monohydrate] | > 50 µM | – |
| CO/N=C(\C(=O)N[C@@H]1C(=O)N2C(C(=O)[O-])=C(C[n+]3cccc4c3CCCC4)CS[C@H]12)c1csc(N)n1 [Cefquinome sulfate] | > 50 µM | – |
| COC1=C(C(=O)O)N2C(=O)[C@@H](NC(=O)[C@H](N)C3=CCC=CC3)[C@H]2SC1 [Cefroxadine] | > 50 µM | – |
| NC(=O)c1cc[n+](CC2=C(C(=O)O)N3C(=O)[C@@H](NC(=O)[C@@H](c4ccccc4)S(=O)(=O)[O-])[C@H]3SC2)cc1 [Cefsulodin sodium] | > 20 µM | – |
| CC(C)(O/N=C(\C(=O)N[C@@H]1C(=O)N2C(C(=O)[O-])=C(C[n+]3ccccc3)CS[C@H]12)c1csc(N)n1)C(=O)O [Ceftazidime pentahydrate] | > 20 µM | – |
| CO/N=C(\C(=O)N[C@@H]1C(=O)N2C(C(=O)O)=C(Cn3nnc(C)n3)CS[C@H]12)c1csc(N)n1 [Cefteram] | > 50 µM | – |
| O=C(Cn1cnnn1)N[C@@H]1C(=O)N2C(C(=O)O)=C(CSc3nncs3)CS[C@H]12 [Ceftezole sodium] | > 50 µM | – |
| Nc1nc(/C(=C/CC(=O)O)C(=O)N[C@@H]2C(=O)N3C(C(=O)O)=CCS[C@H]23)cs1 [Ceftibuten] | > 50 µM | – |
| CO/N=C(\C(=O)N[C@@H]1C(=O)N2C(C(=O)O)=C(CSC(=O)c3ccco3)CS[C@H]12)c1csc(N)n1 [Ceftiofur] | > 50 µM | – |

| Compound | CC50 at 24 h (AC50 (uM) modified / 1000) | further results |
| --- | --- | --- |
| CO/N=C(\C(=O)N[C@@H]1C(=O)N2C(C(=O)O)=CCS[C@H]12)c1csc(N)n1 [Ceftizoxime sodium] | > 50 µM | – |
| CO/N=C(\C(=O)N[C@@H]1C(=O)N2C(C(=O)O)=C(CSc3nc(=O)c(=O)[nH]n3C)CS[C@H]12)c1csc(N)n1 [Ceftriaxone disodium trihydrate] | > 50 µM | – |
| CO/N=C(\C(=O)N[C@@H]1C(=O)N2C(C(=O)O)=C(COC(N)=O)CS[C@H]12)c1ccco1 [Cefuroxime] | > 90 µM | – |
| CO/N=C(\C(=O)N[C@@H]1C(=O)N2C(C(=O)O)=C(CSc3cnns3)CS[C@H]12)c1csc(N)n1 [Cefuzonam hydrochloride] | > 50 µM | – |
| CCN(CC)C(=O)Nc1ccc(OCC(O)CNC(C)(C)C)c(C(C)=O)c1 (stereo not shown) [Celiprolol hydrochloride] | > 50 µM | – |
| OC[C@H]1O[C@@H](O[C@H]2[C@H](O)[C@@H](O)C(O)O[C@@H]2CO)[C@H](O)[C@@H](O)[C@@H]1O (stereo partly shown) [Cellobiose] | > 50 µM | – |
| CC(=O)OC[C@H]1O[C@@H](O[C@H]2[C@H](O)[C@@H](OC(=O)c3ccccc3C(=O)O)[C@H](O)O[C@@H]2COC(C)=O)[C@H](O)[C@@H](OC(=O)c2ccccc2C(=O)O)[C@@H]1O [Cellulose acetate phthalate] | > 50 µM | – |
| O=C(Cc1cccs1)N[C@@H]1C(=O)N2C(C(=O)[O-])=C(C[n+]3ccccc3)CS[C@H]12 [Cephaloridine] | > 50 µM | – |
| CC(=O)OCC1=C(C(=O)O)N2C(=O)[C@@H](NC(=O)Cc3cccs3)[C@H]2SC1 [Cephalothin] | > 50 µM | – |
| CC(=O)OCC1=C(C(=O)O)N2C(=O)[C@@H](NC(=O)CSc3ccncc3)[C@H]2SC1 [Cephapirin sodium] | > 50 µM | – |
| COc1ccc2cc1Oc1ccc(cc1)C[C@H]1c3c(cc4c(c3Oc3cc5c(cc3OC)CCN(C)[C@@H]5C2)OCO4)CCN1C [Cepharanthine] | 12.3 µM | – |
| CC1=C(C(=O)O)N2C(=O)[C@@H](NC(=O)[C@H](N)C3=CCC=CC3)[C@H]2SC1 [Cephradine] | > 50 µM | – |
| COCc1c(C(C)C)nc(C(C)C)c(/C=C/[C@@H](O)C[C@@H](O)CC(=O)O)c1-c1ccc(F)cc1 [Cerivastatin sodium] | > 50 µM | – |
| NC(=O)COCCN1CCN(C(c2ccccc2)c2ccc(Cl)cc2)CC1 (stereo not shown) [Cetirizine amide dihydrochloride] | 21.7 µM | – |
| NC[C@H]1CC[C@H](C(=O)Oc2ccc(CCC(=O)O)cc2)CC1 [Cetraxate hydrochloride] | > 50 µM | – |
| O=C(CCCCCCCCCCCCC1CCCC1)Nc1ccc(S(=O)(=O)c2ccc(NC(=O)CCCCCCCCCCCCC3CCCC3)cc2)cc1 [Chaulmosulfone] | > 50 µM | – |
| CN(C)CCC(O)(c1ccccc1)c1ccccc1Cl (stereo not shown) [Chlophedianol] | 26 µM | – |
| CCN(CC)CCC(=O)N1c2ccccc2Sc2ccc(Cl)cc21 [Chloracizine] | 23.2 µM | – |
| OC(O)C(Cl)(Cl)Cl [Chloral hydrate] | – | CC50 at 24 h (AC50 (uM) modified / 1000, Tox21_110001=Tox21_111614, viability, 1 nM T3 present, 24 h): > 50 µM; CC50 at 24 h (AC50 (uM) modified / 1000, Tox21_110001=Tox21_200110, viability, 1 nM T3 present, 24 h): > 90 µM |
| OC[C@@H](O)[C@H]1O[C@@H]2O[C@H](C(Cl)(Cl)Cl)O[C@@H]2[C@H]1O [Chloralose] | – | CC50 at 24 h (AC50 (uM) modified / 1000, Tox21_110001=Tox21_111708, viability, 1 nM T3 present, 24 h): > 50 µM; CC50 at 24 h (AC50 (uM) modified / 1000, Tox21_110001=Tox21_201447, viability, 1 nM T3 present, 24 h): > 90 µM |
| Nc1cc(Cl)cc(C(=O)O)c1Cl [Chloramben] | > 90 µM | – |

| Compound | CC50 at 24 h (AC50 (uM) modified / 1000) | further results |
| --- | --- | --- |
| O=C(O)CCCc1ccc(N(CCCl)CCCl)cc1 [Chlorambucil] | 61 µM | – |
| Cc1ccc(S(=O)(=O)NCl)cc1 [Chloramine T hydrate (1:x)] | > 80 µM | – |
| CCCCCCCCCCCCCCCC(=O)OC[C@@H](NC(=O)C(Cl)Cl)[C@H](O)c1ccc([N+](=O)[O-])cc1 [Chloramphenicol palmitate] | > 50 µM | – |
| O=C(O)CCC(=O)OC[C@@H](NC(=O)C(Cl)Cl)[C@H](O)c1ccc([N+](=O)[O-])cc1 [Chloramphenicol sodium succinate] | > 50 µM | – |
| O=C(N[C@H](CO)[C@H](O)c1ccc([N+](=O)[O-])cc1)C(Cl)Cl [Chloramphenicol] | > 90 µM | – |
| O=C1C(Cl)=C(Cl)C(=O)C(Cl)=C1Cl [Chloranil] | – | CC50 at 24 h (AC50 (uM) modified / 1000, Tox21_110001=Tox21_201656, viability, 1 nM T3 present, 24 h): 12.7 µM; CC50 at 24 h (AC50 (uM) modified / 1000, Tox21_110001=Tox21_303021, viability, 1 nM T3 present, 24 h): 20.3 µM |
| C=C(C)C(=O)Nc1ccc(Cl)c(Cl)c1 [Chloranocryl] | > 90 µM | – |
| Nc1ncnc(Nc2ccc(Cl)cc2)n1 [Chlorazanil] | > 50 µM | – |
| CON(C)C(=O)Nc1ccc(Br)c(Cl)c1 [Chlorbromuron] | – | CC50 at 24 h (AC50 (uM) modified / 1000, Tox21_110001=Tox21_300793, viability, 1 nM T3 present, 24 h): > 90 µM |
| CN1CCN(C(c2ccccc2)c2ccc(Cl)cc2)CC1 (stereo not shown) [Chlorcyclizine hydrochloride] | 4.39 µM | – |
| ClC1=C(Cl)[C@]2(Cl)C3C(Cl)C(Cl)CC3[C@@]1(Cl)C2(Cl)Cl (stereo partly shown) [Chlordane] | – | CC50 at 24 h (AC50 (uM) modified / 1000, Tox21_110001=Tox21_300586, viability, 1 nM T3 present, 24 h): 25.5 µM |
| CNC1=Nc2ccc(Cl)cc2C(c2ccccc2)=[N+]([O-])C1 [Chlordiazepoxide] | – | CC50 at 24 h (AC50 (uM) modified / 1000, Tox21_110001=Tox21_111567, viability, 1 nM T3 present, 24 h): > 50 µM |
| Cc1cc(Cl)ccc1N=CN(C)C [Chlordimeform hydrochloride] | – | CC50 at 24 h (AC50 (uM) modified / 1000, Tox21_110001=Tox21_301412, viability, 1 nM T3 present, 24 h): > 90 µM |
| O=C(O)C1C(C(=O)O)[C@@]2(Cl)C(Cl)=C(Cl)[C@]1(Cl)C2(Cl)Cl (stereo partly shown) [Chlorendic acid] | > 90 µM | – |
| O=C1OC(=O)C2C1C1(Cl)C(Cl)=C(Cl)C2(Cl)C1(Cl)Cl (stereo not shown) [Chlorendic anhydride] | > 90 µM | – |
| O=C(O)Cc1c(Cl)ccc(Cl)c1Cl [Chlorfenac] | > 90 µM | – |
| CCOCn1c(-c2ccc(Cl)cc2)c(C#N)c(Br)c1C(F)(F)F [Chlorfenapyr] | 2.15 µM | – |
| CC(O)(c1ccc(Cl)cc1)c1ccc(Cl)cc1 [Chlorfenethol] | 76.2 µM | – |
| O=S(=O)(Oc1ccc(Cl)cc1)c1ccc(Cl)cc1 [Chlorfenson] | > 90 µM | – |
